From patent US20250368632A1, “CR[…] AND CONJUGATES THEREOF” (Universitat Bielefeld, priority 2021, published 2025)

Legend:
KB-3-1 cells = experiment: Resazurin cell viability (cytotoxicity) assay, 72 h incubation, KB-3-1 cells; format: cell-based; settings: resazurin fluorescence, drug concentration at which vitality is 50%, read-out: IC50 values of cryptophycin compounds, KB-3-1 cells
Experimental: (§1) The KB-3-1 and KB—V1 cells were cultivated as a monolayer in DMEM (Dulbecco's modified Eagle medium) with glucose (4.5 g L^−1), L-glutamine, sodium pyruvate and phenol red, supplemented with 10% (KB-3-1) and 15% (KB—V1) fetal bovine serum. 50 μg mL^−1 gentamycin is added for the KB—V1 cells. The cells were maintained at 37° C. and 5.3% CO2/humidified air. KB—V1 cells were continuously selected during cultivation with vinblastine sulfate (150 nM). On the day before the test, the cells (70% confluence) were detached with trypsin/ethylenediaminetetraacetic acid (EDTA) solution (0.05%/0.02% in DPBS) and plated in sterile 96-well plates in a density of 10,000 cells in 100 μL medium per well. The dilution series of the compounds were prepared from stock solutions in DMSO of concentrations of […]. The stock solutions were diluted with culture medium (15% FBS [KB—V1]; 10% FBS [KB-3-1]) at least 50 times. Some culture medium was added to the wells to adjust the volume of the wells to the wanted dilution factor. The dilution prepared from stock solution was added to the wells. Each concentration was tested in six replicates. Dilution series were prepared by pipetting liquid from well to well. The control contained the same concentration of DMSO as the first dilution. After incubation for 72 h at 37° C. and 5.3% CO2/humidified air, 30 μL of an aqueous resazurin solution (175 μM) was added to each well. The cells were incubated at the same conditions for 6 h. Subsequently, the fluorescence was measured. The excitation was effected at a wavelength of 530 nm, whereas the emission was recorded at a wavelength of 588 nm. The IC50 values were calculated as a sigmoidal dose response curve using GraphPad Prism 4.03. The IC50 values equal the drug concentrations, at which vitality is 50%.

KB-V1 cells = experiment: Resazurin cell viability (cytotoxicity) assay, 72 h incubation, KB-V1 cells (selected with vinblastine); format: cell-based; settings: resazurin fluorescence, drug concentration at which vitality is 50%, read-out: IC50 values of cryptophycin compounds, KB-V1 cells
Experimental: as §1

Substance | IC50 (KB-3-1 cells) [nM] | IC50 (KB-V1 cells) [nM]
Cryptophycin-[uD-Met] [Compound T7] | 0.02 | 49
Cryptophycin-[uD-Thr] [Compound Z7] | 0.026 | 300
Cryptophycin-uD[Dap(Alloc,Me)] [Compound P10] | 0.045 | 890
Cryptophycin-[uD-Lys(Alloc)] [Compound G5] | 4200 | > 500
Cryptophycin-uD[Dab(Alloc,Me)] [Compound B10] | 0.021 | 90
Cryptophycin-[uD-Dab-Me2] [Compound C7] | 0.038 | 210
Cryptophycin-[uD-HSe] [Compound Y8] | 0.8 | > 500
Cryptophycin-uD[Dap(Me)] [Compound P11] | 0.0087 | 21
Cryptophycin [Compound H8, Cryptophycin [uD-Ser]] | 0.12 | 1100
Cryptophycin-[uD-Dab] [Compound C6] | 1 | > 50000
Cryptophycin-[uD-Ser(AII)] [Compound H7] | 0.011 | 29
Cryptophycin-[uD-Dab(Alloc)] [Compound C5] | 0.22 | 400
Cryptophycin-uD[Dap(AII, Me)] [Compound C10] | 0.021 | 0.87
Cryptophycin-[uD-Thr(Allyl)] [Compound Z6] | 1.5 | > 1000
Cryptophycin-[uD-Lys] [Compound G6] | 60000 | > 500
Cryptophycin-[uD-HSe(AII)] [Compound Y7] | 0.018 | 93
